Assay results as given in patent publication US6413521B1, “Helminth parasite antigen with aminopeptidase-like activity” (The Barbraham Institute, priority 1993, dated 2002).
Non-standard residues stand in square brackets, D forms with d. Residues, ends and D or L forms follow the SMILES beside them. *: point of attachment. Sta = CC(C)C[C@H](N)[C@@H](O)CC(=O)O; Isovaleryl = CC(C)CC(=O)*

B1: Thermolysin: protease, Sigma, 37 units/mg solid (protein, UniProt P00800 233-548, looked up)
Thermolysin: ITGTSTVGVGRGVLGDQKNINTTYSTYYYLQDNTRGNGIFTYDAKYRTTLPGSLWADADNQFFASYDAPAVDAHYYAGVTYDYYKNVHNRLSYDGNNAAIRSSVHYSQGYNNAFWNGSQMVYGDGDGQTFIPLSGGIDVVAHELTHAVTDYTAGLIYQNESGAINEAISDIFGTLVEFYANKNPDWEIGEDVYTPGISGDSLRSMSDPAKYGDPDHYSKRYTGTQDNGGVHINSGIINKAAYLISQGGTHYGVSVVGIGRDKLGKIFYRALTQYLTPTSNFSQLRAAAVQSATDLYGSTSQEVASVKQAFDAVGVK
B2: Subtilisin: protease, Sigma type VIII, 11.6 units/mg solid (protein, UniProt P00780 106-379, looked up)
Subtilisin Carlsberg: AQTVPYGIPLIKADKVQAQGFKGANVKVAVLDTGIQASHPDLNVVGGASFVAGEAYNTDGNGHGTHVAGTVAALDNTTGVLGVAPSVSLYAVKVLNSSGSGSYSGIVSGIEWATTNGMDVINMSLGGASGSTAMKQAVDNAYAKGVVVVAAAGNSGSSGNTNTIGYPAKYDSVIAVGAVDSNSNRASFSSVGAELEVMAPGAGVYSTYPTNTYATLNGTSMASPHVAGAAALILSKHPNLSASQVRNRLSSTATYLGSSFYYGKGLINVEAAAQ

Columns and labels:
[1] = test system: Con A Oo12 ApM activity; test: Con A O12 aminopeptidase inhibition assay, ApM (leucine p-nitroanilide); type: biochemical, Ostertagia ostertagi
Method: (§1) The effect of various protease inhibitors on Oo12 activity was assayed and included amastatin (aminopeptidase inhibitor), actinonin (aminopeptidase inhibitor), bestatin (aminopeptidase inhibitor), EDTA (metallo-protease inhibitor), E64 (cysteine protease inhibitor), pepstatin (aspartic protease inhibitor), 1,10 phenanthroline (metallo-protease inhibitor) and 3,4-dichloroisocoumarin (DCI, serine protease inhibitor). 10 μl Con A Oo12 and 100 μl 50 mM Mops buffer, pH 7.0 was added to a microtitre plate well and 2-4 μl of enzyme inhibitor added, to give a final concentration of 0.5 mM and 1 mM actinonin, 50 μM and 100 μM bestatin, 1 mM and 15 mM EDTA, 50 μM and 100 μM E64, 10 and 50 μM pepstatin, 1 mM and 10 mM 1,10 phenanthroline, 100 μM and 500 μM DCI. The plate was preincubated at 37° C. for 20-28 minutes and then assayed for ApM and ApA activity. 100 μl 2 mM leucine p-nitroanilide (ApM) or α-glutamic p-nitroanilide (ApA)/Mops was added per well and the optical density (OD) at 405 nm read using an Elisa plate reader. The plates were incubated at 37° C. for 45-48 minutes and the final OD reading was then taken. The OD change per minute per 10 μl sample was calculated. All assays were carried out in triplicate.

[2] = test system: Con A Oo12 ApA activity; test: Con A O12 aminopeptidase inhibition assay, ApA (α-glutamic p-nitroanilide); type: biochemical, Ostertagia ostertagi
Method: as §1

[3] = test system: Ostertagia ostertagi PHP; test: Protease digestion of Oo PhP, release of ApM activity; type: biochemical
Method: Method: Oo PhP was resuspended in 50 mM Mops buffer, pH 7.0 to give 0.1 mg pellet/ml. 50 μl aliquots were prewarmed at 37° C. for 39 minutes. 5 μl of either α-Chymotrypsin (Sigma type VII, 50 units/mg solid), Subtilisin (Sigma type VIII, 11.6 units/mg solid), Trypsin (Sigma, TPCK-treated type XIII, 9700 units/mg solid) or Thermolysin (Sigma, 37 units/mg solid dissolved in 1 mM KCl/2 mM CaCl) was added to give final protease concentrations of 5, 50, 500, 1000 and 2000 μg/ml. Aliquots containing chymotrypsin, trypsin or subtilisin were then incubated at 37° C. for 1 hour and protease activity inhibited by the addition of 1 μl 10 mM 3,4-dichloroisocoumarin (DCI). Aliquots containing thermolysin were incubated for 2 hours at 37° C. and activity inhibited by the addition of 1 μl 0.25M EDTA. Samples were spun at high speed on the airfuge at 20 psi for 20 minutes at room temperature. 5 μl samples were assay for ApM activity, using the microtitre plate method, over 29.6 minutes with methionine-pNA as substrate.

Molecule	Leu-pNA enzyme activity ([1]; inhibitor 1 mM) [nmoles/min/10 μl ConA O12]	Leu-pNA enzyme inhibition ([1]; inhibitor 1 mM) [%]	α-Glu-pNA enzyme activity ([2]; inhibitor 1 mM) [nmoles/min/10 μl ConA O12]	α-Glu-pNA enzyme inhibition ([2]; inhibitor 1 mM) [%]	Leu-pNA enzyme activity ([1]; inhibitor 50 μM) [nmoles/min/10 μl ConA O12]	Leu-pNA enzyme inhibition ([1]; inhibitor 50 μM)	Leu-pNA enzyme activity ([1]; inhibitor 100 μM) [nmoles/min/10 μl ConA O12]	Leu-pNA enzyme inhibition ([1]; inhibitor 100 μM)	α-Glu-pNA enzyme activity ([2]; inhibitor 50 μM) [nmoles/min/10 μl ConA O12]	α-Glu-pNA enzyme inhibition ([2]; inhibitor 50 μM) [%]	α-Glu-pNA enzyme activity ([2]; inhibitor 100 μM) [nmoles/min/10 μl ConA O12]	α-Glu-pNA enzyme inhibition ([2]; inhibitor 100 μM) [%]	further results
c1cnc2c(c1)ccc1cccnc12 [1,10 Phenanthroline, 1,10 phenanthroline]	0.005	99	0	100									inhibitory effect on aminopeptidase activity ([1]; 10 mM): greatest inhibition; Leu-pNA enzyme activity ([1]; inhibitor 10 mM): 0 nmoles/min/10 μl ConA O12; Leu-pNA enzyme inhibition ([1]; inhibitor 10 mM): 100%; α-Glu-pNA enzyme activity ([2]; inhibitor 10 mM): 0 nmoles/min/10 μl ConA O12; α-Glu-pNA enzyme inhibition ([2]; inhibitor 10 mM): 100%
CCCCC[C@H](CC(=O)NO)C(=O)N[C@H](C(=O)N1CCC[C@H]1CO)C(C)C [Actinonin, actinonin]	0.448	63	0.029	91									Leu-pNA enzyme activity ([1]; inhibitor 0.5 mM): 0.621 nmoles/min/10 μl ConA O12; Leu-pNA enzyme inhibition ([1]; inhibitor 0.5 mM): 49%; α-Glu-pNA enzyme activity ([2]; inhibitor 0.5 mM): 0.016 nmoles/min/10 μl ConA O12; α-Glu-pNA enzyme inhibition ([2]; inhibitor 0.5 mM): 95%
CC(C)C[C@H](NC(=O)[C@@H](O)[C@H](N)Cc1ccccc1)C(=O)O [Bestatin, bestatin]					0.045	96%	0.022	98%	0.174	48	0.119	64	
O=c1oc(Cl)c(Cl)c2ccccc12 [DCI, 3,4-dichloroisocoumarin]							1.229	0%			0.252	24	Leu-pNA enzyme activity ([1]; inhibitor 500 μM): 1.129 nmoles/min/10 μl ConA O12; Leu-pNA enzyme inhibition ([1]; inhibitor 500 μM): 8%; α-Glu-pNA enzyme activity ([2]; inhibitor 500 μM): 0.216 nmoles/min/10 μl ConA O12; α-Glu-pNA enzyme inhibition ([2]; inhibitor 500 μM): 35%
CC(C)C[C@H](NC(=O)[C@H]1O[C@@H]1C(=O)O)C(=O)NCCCCN=C(N)N [E64]					1.241	0 (+1%)	1.278	0 (+4%)	0.323	3	0.327	2	
O=C(O)CN(CCN(CC(=O)O)CC(=O)O)CC(=O)O [EDTA]	0.994	19	0.161	52									Leu-pNA enzyme activity ([1]; inhibitor 15 mM): 0.784 nmoles/min/10 μl ConA O12; Leu-pNA enzyme inhibition ([1]; inhibitor 15 mM): 36%; α-Glu-pNA enzyme activity ([2]; inhibitor 15 mM): 0.112 nmoles/min/10 μl ConA O12; α-Glu-pNA enzyme inhibition ([2]; inhibitor 15 mM): 66%
CC(C)CC(=O)N[C@H](C(=O)N[C@H](C(=O)N[C@@H](CC(C)C)[C@@H](O)CC(=O)N[C@@H](C)C(=O)N[C@@H](CC(C)C)[C@@H](O)CC(=O)O)C(C)C)C(C)C [Pepstatin, pepstatin] (Isovaleryl-VV[Sta]A[Sta]-OH)					1.263	0 (+3%)			0.315	6			Leu-pNA enzyme activity ([1]; inhibitor 10 μM): 1.297 nmoles/min/10 μl ConA O12; Leu-pNA enzyme inhibition ([1]; inhibitor 10 μM): 0 (+6%); α-Glu-pNA enzyme activity ([2]; inhibitor 10 μM): 0.326 nmoles/min/10 μl ConA O12; α-Glu-pNA enzyme inhibition ([2]; inhibitor 10 μM): 2%
B1													Aminopeptidase M activity released by protease digestion, Met-pNA ([3]; 5 μg protease/0.1 mg PHP/ml): 0.06 nmoles/min/5 μl high speed supernatant; Aminopeptidase M activity released by protease digestion, Met-pNA ([3]; 50 μg protease/0.1 mg PHP/ml): 0.07 nmoles/min/5 μl high speed supernatant; Aminopeptidase M activity released by protease digestion, Met-pNA ([3]; 500 μg protease/0.1 mg PHP/ml): 0.08 nmoles/min/5 μl high speed supernatant; Aminopeptidase M activity released by protease digestion, Met-pNA ([3]; 1000 μg protease/0.1 mg PHP/ml): 0.11 nmoles/min/5 μl high speed supernatant; Aminopeptidase M activity released by protease digestion, Met-pNA ([3]; 2000 μg protease/0.1 mg PHP/ml): 0.19 nmoles/min/5 μl high speed supernatant; release of ApM from the PhP ([3]; 5-2000 μg/ml protease): least effective
B2													Aminopeptidase M activity released by protease digestion, Met-pNA ([3]; 5 μg protease/0.1 mg PHP/ml): 0.06 nmoles/min/5 μl high speed supernatant; Aminopeptidase M activity released by protease digestion, Met-pNA ([3]; 50 μg protease/0.1 mg PHP/ml): 0.10 nmoles/min/5 μl high speed supernatant; Aminopeptidase M activity released by protease digestion, Met-pNA ([3]; 500 μg protease/0.1 mg PHP/ml): 0.35 nmoles/min/5 μl high speed supernatant; Aminopeptidase M activity released by protease digestion, Met-pNA ([3]; 1000 μg protease/0.1 mg PHP/ml): 0.66 nmoles/min/5 μl high speed supernatant; Aminopeptidase M activity released by protease digestion, Met-pNA ([3]; 2000 μg protease/0.1 mg PHP/ml): 0.95 nmoles/min/5 μl high speed supernatant
